The data set is described as follows: Human HepG2 cell viability assay in 384 well format. Format: toxicity, cell-based. Further details: dose 125 nL, time 70.5 hour; concentration not given beside the values. The note with it: HepG2 cells, read-out: Inhibition.

Take `Cc1ncc(C(=O)N2CC(C(=O)N3CCCCCC3)C2)c(C)n1`: the cytotoxicity at 70.5 h is -4.02%.

As to `CCOc1cc([C@@H]2N[C@H](c3nccs3)Cc3ccsc32)ccc1OC`, the cytotoxicity at 70.5 h was -3%.

Turning to `CCC1CCCCN1C(=O)Cn1nc(-c2cc(C)oc2C)cc(N)c1=O` (stereo not drawn), the cytotoxicity at 70.5 h was -3.58%.

`CC(C)NC(=O)[C@@H]1CN(C(=O)C2CC2)C[C@]12Cc1ccccc1C(=O)N2`: the cytotoxicity at 70.5 h was -3.78%.

As to `CC(=O)N1CCOCC(Cc2ccc3c(ccn3C)c2)C1` (stereo not drawn), the cytotoxicity at 70.5 h is -0.747%.

With `Cc1noc(C)c1-c1cc(CCC2CN(C(=O)CN)CCO2)ncn1` (stereo not drawn), the cytotoxicity at 70.5 h was -2.94%.

As for `Cc1cc2ncc(CN(C)C)c(C3CCN(C)CC3)n2n1`, the cytotoxicity at 70.5 h is 13.7%.

For the compound `COC(=O)c1cccc(C2CNCCN2C(C)=O)c1` (stereo not drawn), the cytotoxicity at 70.5 h was 21.6%.

As for `CC(=O)N1CCC(c2c(CN(C)C)cnc3cc(C)nn23)CC1`, the cytotoxicity at 70.5 h was determined as 15.7%.

Turning to `Nc1cc(-c2c[nH]nc2C2CCCN2S(=O)(=O)c2ccccc2)ccn1` (stereo not drawn), the cytotoxicity at 70.5 h was -2.78%.

For `CN1CCCC(c2nnc3n2CCN(S(=O)(=O)c2ccccc2Cl)C3)C1` (stereo not drawn), the cytotoxicity at 70.5 h is -9.93%.

Turning to `Nc1ncnc2nc(C3CCN(C(=O)Cc4ccc(F)cc4)C3)ccc12` (stereo not drawn), the cytotoxicity at 70.5 h is -9.46%.

Take `CCC(=O)N1CCc2c(O)nc(C3CCCCN3C(=O)C3CC3)nc2C1` (stereo not drawn): the cytotoxicity at 70.5 h was -3.59%.

Consider `O=C1NC2(CCc3ccccc31)CCN(C(=O)c1cccnc1)C2` (stereo not drawn), for which the cytotoxicity at 70.5 h is -13%.

With `CCC(=O)N1CCCCC1c1nc(O)c2c(n1)CN(C(=O)C1CC1)CC2` (stereo not drawn), the cytotoxicity at 70.5 h was -7.02%.

Turning to `CCC(=O)N1CCCCC1c1nc(O)c2c(n1)CN(S(=O)(=O)CC)CC2` (stereo not drawn), the cytotoxicity at 70.5 h was -13.9%.

Consider `Cc1c[nH]nc1C1CN(Cc2cnn(-c3ccccc3C(=O)O)c2)C1`, for which the cytotoxicity at 70.5 h is -6.87%.

On to `CCCn1cc(Cl)c(C(=O)N2C[C@@H](O)[C@H](NC(C)=O)C2)n1`, for which the cytotoxicity at 70.5 h is -8.89%.

Consider `CNc1cncc(C2CCCN2Cc2ccnc(N3CCCC3)n2)n1` (stereo not drawn), for which the cytotoxicity at 70.5 h was 16.1%.

On to `O=S(=O)(c1cccs1)N1CCCCC1c1ccn[nH]1` (stereo not drawn), for which the cytotoxicity at 70.5 h is -2.26%.

`Cc1c[nH]nc1C1CCCCN1C(=O)CC1(O)CCCCC1` (stereo not drawn): the cytotoxicity at 70.5 h was -8.79%.

With `Cc1ncsc1CN1C[C@@H](O)[C@](O)(CNC(=O)c2ccccn2)C1`, the cytotoxicity at 70.5 h was -10.6%.

As for `COc1ccc(CN2C[C@@H](O)[C@](O)(CNC(=O)c3ccccn3)C2)cc1`, the cytotoxicity at 70.5 h is -7.06%.

Turning to `CC(=O)N1C[C@@H](c2ccsc2)[C@@H]2CN(Cc3ccccc3C)CC[C@@H]21`, the cytotoxicity at 70.5 h was 18.9%.

Take `COc1cccc(CN2CCC(c3nnc(-c4cnc(C)cn4)o3)C2)c1` (stereo not drawn): the cytotoxicity at 70.5 h is -13.5%.

Consider `Cc1nc(Nc2nnc(C)s2)cc(C2CCCN2C)n1` (stereo not drawn), for which the cytotoxicity at 70.5 h was determined as 7.92%.

As for `CCN1CCC(c2cncc(N(C)C)n2)CC1`, the cytotoxicity at 70.5 h stood at 1.63%.

In the case of `CC(=O)N1CC(Cc2nccc3ccn(C)c23)C1`, the cytotoxicity at 70.5 h was -5.15%.

With `c1ncc(Nc2nccc(C3CCCCN3CC3CCCCC3)n2)cn1` (stereo not drawn), the cytotoxicity at 70.5 h was -2.27%.

On to `O=C(C1CC1)N1CCC(c2nc(O)c3c(n2)CCN(C2CCCC2)C3)C1` (stereo not drawn), for which the cytotoxicity at 70.5 h is -6.87%.

For the compound `CC(=O)N1CCC(c2ccnc(Nc3cnccn3)n2)C1` (stereo not drawn), the cytotoxicity at 70.5 h is -22.3%.

Turning to `CCC(=O)N1CCC(Cc2ccccc2-c2ccccc2)(C(N)=O)C1` (stereo not drawn), the cytotoxicity at 70.5 h is -20.3%.

Turning to `Cc1nc(CCC(=O)NC2CCC2)cc(C2CCNCC2)n1`, the cytotoxicity at 70.5 h is 21.9%.

On to `Cc1noc(C)c1-c1cccc(CC2CCN(C(=O)c3cc[nH]n3)C2)n1` (stereo not drawn), for which the cytotoxicity at 70.5 h is -18%.

With `CC(=O)N1CCOC(c2cc(N3CC(O)C3)nc(C)n2)C1` (stereo not drawn), the cytotoxicity at 70.5 h is -16.5%.

As to `Cc1cc(N(C)C)nc(C2(C)CCCN2C(=O)c2cnccn2)n1` (stereo not drawn), the cytotoxicity at 70.5 h is -21.4%.

Consider `CC(=O)Nc1nc(C2CCN(C(=O)c3cccnc3)CC2)cs1`, for which the cytotoxicity at 70.5 h was -15.5%.

Regarding `CN1CCN(Cc2cscn2)CC(C(=O)N(C)C)C1` (stereo not drawn), the cytotoxicity at 70.5 h came to 15.4%.

As for `CC(=O)N1CCC(c2cncc(Oc3ccccc3)n2)CC1`, the cytotoxicity at 70.5 h is -2.89%.

Take `CCn1cc(CN2C[C@@H]3CCCN3C[C@@H]2CCSC)c(C)n1`: the cytotoxicity at 70.5 h was -22.6%.

Consider `CC(=O)N1CCCC1c1nccc(C)n1` (stereo not drawn), for which the cytotoxicity at 70.5 h is -9.48%.

As to `Cc1cnc(N)c(C(=O)C2CCN(C(=O)c3ccccc3F)CC2)c1`, the cytotoxicity at 70.5 h was -11.6%.

Take `C=C(C)C(=O)N1CCC(C(=O)c2cc(C)cnc2N)CC1`: the cytotoxicity at 70.5 h was 14.9%.

In the case of `Cc1nc(C2CCCN2C(=O)c2ccccc2)ncc1C(N)=O` (stereo not drawn), the cytotoxicity at 70.5 h is -7.95%.

With `CN(Cc1ccc(F)cc1)CC1(O)CCN(C(=O)c2cccn2C)C1` (stereo not drawn), the cytotoxicity at 70.5 h was -10.7%.

Take `Cc1ccccc1C(=O)N1CCC(n2nnc3cc(F)ccc32)CC1`: the cytotoxicity at 70.5 h is -12.1%.

Regarding `Cc1cc(-c2cnc(N3CCNC(=O)C3)nc2-c2cccnc2C)on1`, the cytotoxicity at 70.5 h is -15.9%.

Turning to `COc1ccc(C2Nc3cc(Cl)ccc3C3=NCCN32)cc1OC` (stereo not drawn), the cytotoxicity at 70.5 h amounted to 42.1%.

Regarding `COc1ccc(C2Nc3ccccc3C3=NCCCN32)cc1OC` (stereo not drawn), the cytotoxicity at 70.5 h turned out to be 7.54%.

Take `CC(=O)N1CCC(Cc2cnc(-c3c(C)n[nH]c3C)cn2)C1` (stereo not drawn): the cytotoxicity at 70.5 h is -13.1%.

Turning to `Cc1ccc(Nc2nccc(C3CCCN(CC(=O)N(C)C)C3)n2)nc1` (stereo not drawn), the cytotoxicity at 70.5 h was -16.1%.

`NCCn1nc(C2CCN(C(=O)CC3CCCCC3)C2)c2nccnc21` (stereo not drawn): the cytotoxicity at 70.5 h was -7.33%.

As for `CC1CCCN(CC(=O)N2CCC(c3ncc4c(n3)CCNC4)CC2)C1` (stereo not drawn), the cytotoxicity at 70.5 h was found to be 1.79%.

Take `CC(C)(C)C(=O)N1CCC(c2nc(O)cc(-c3ccccn3)n2)CC1`: the cytotoxicity at 70.5 h turned out to be 16%.

`CC(C)(C)c1n[nH]cc1CN1CCc2nc3ccsc3c(=O)n2CC1`: the cytotoxicity at 70.5 h was 12.1%.

On to `O=c1c2ccccc2nc2n1CCN(Cc1cccs1)CC2`, for which the cytotoxicity at 70.5 h is -16.1%.

In the case of `Cc1ccc(-c2cc(N)c(=O)n(CC(=O)NCC3CCCCC3)n2)s1`, the cytotoxicity at 70.5 h was -16.2%.

For the compound `O=C(c1ccncc1)N1CCC(O)(Cn2ccc3ccncc32)CC1`, the cytotoxicity at 70.5 h is -13.3%.

For the compound `O=C(NCCO)C1(Cc2cc(-c3ccc(F)cc3F)no2)CCOCC1`, the cytotoxicity at 70.5 h was -12.3%.

Regarding `O=c1c2sccc2nc2n1CCN(Cc1cccs1)CC2`, the cytotoxicity at 70.5 h is -18.8%.

In the case of `Cc1cc2c(=O)n3c(nc2s1)CCN(C(=O)c1cnn(C)c1C)CC3`, the cytotoxicity at 70.5 h was -14.8%.

Take `CCS(=O)(=O)N1CCC(c2cc3n(n2)[C@@H](C(F)(F)F)C[C@@H](C)N3)CC1`: the cytotoxicity at 70.5 h is -17.1%.

Regarding `Cc1ccc(S(=O)(=O)N2C[C@H]3C[C@H](NC(=O)c4ccn(C)n4)[C@H]3C2)cc1`, the cytotoxicity at 70.5 h worked out at 1.44%.

Take `Cc1ccc(-c2cc(N)c(=O)n(CC(=O)NC3CCCCC3)n2)s1`: the cytotoxicity at 70.5 h was -17.9%.

On to `O=C(O)C1(Cc2cccc(-c3ccc(F)c(F)c3)c2)CCOCC1`, for which the cytotoxicity at 70.5 h was -19.2%.

In the case of `CN1CCC2(CC1)CNC(=O)c1ccccc1O2`, the cytotoxicity at 70.5 h is -13.6%.

Regarding `Fc1ccc(CN2CCCC(c3nnc(-c4cnccn4)o3)C2)cc1F` (stereo not drawn), the cytotoxicity at 70.5 h amounted to 0.0269%.

Turning to `CC(C)c1ncc(CN2CCCC(CO)C2)cn1` (stereo not drawn), the cytotoxicity at 70.5 h was -8.2%.

Take `CNc1cc(C)nc(C2CN(Cc3cc[nH]n3)CCO2)c1` (stereo not drawn): the cytotoxicity at 70.5 h is -7.87%.

For the compound `CNc1cc(C)nc(C2CN(Cc3ccc(C)nc3)CCO2)c1` (stereo not drawn), the cytotoxicity at 70.5 h is -9.06%.

On to `O=C(Cc1cccc(F)c1)N1CCCCC1c1ccn2ccnc2n1` (stereo not drawn), for which the cytotoxicity at 70.5 h came to 29.6%.

As for `Cc1ncc(CNC(=O)CCOc2ccccc2)c(C2CCCN2C)n1` (stereo not drawn), the cytotoxicity at 70.5 h was -8.4%.

For `Cc1nc(CC(=O)N2CCCCC2c2ccn3ccnc3n2)cs1` (stereo not drawn), the cytotoxicity at 70.5 h was -12.6%.

On to `COc1ccc(Cc2cccc(C3CCN(C)CC3)n2)cc1`, for which the cytotoxicity at 70.5 h is -6.68%.

Consider `CN1CCC(c2cccc(Cc3ccc(F)cc3)n2)CC1`, for which the cytotoxicity at 70.5 h is -13.1%.

In the case of `Cc1nc(NC2CCCC2)cc(C2CCN2C(=O)c2cccnc2)n1` (stereo not drawn), the cytotoxicity at 70.5 h was -9.69%.

Consider `COCCC(=O)N1CCC(c2noc3nc(C)cc(C(F)(F)F)c23)CC1`, for which the cytotoxicity at 70.5 h is -4.96%.

Take `CCS(=O)(=O)CCSc1ccc(Cl)cc1`: the cytotoxicity at 70.5 h turned out to be 27%.

`CN(Cc1nc(C(F)(F)F)cs1)C(=O)CCc1cccnc1`: the cytotoxicity at 70.5 h is -10.4%.

Take `Cc1oc(C(=O)Nc2cccc(Cl)c2C)cc1S(N)(=O)=O`: the cytotoxicity at 70.5 h is 0.43%.

Take `O=S(=O)(NCCc1ccccc1C(F)(F)F)N1CCOCC1`: the cytotoxicity at 70.5 h is 23.1%.

On to `O=C1CCN(C(=O)NCCCc2ccc(Cl)cc2Cl)CCN1`, for which the cytotoxicity at 70.5 h is -7.65%.

Consider `CS(=O)(=O)CCCC(=O)Nc1cc(-c2cccc(F)c2F)n[nH]1`, for which the cytotoxicity at 70.5 h is -16.7%.

Regarding `COC(=O)c1ccc(S(=O)(=O)N2CCCn3ncnc32)s1`, the cytotoxicity at 70.5 h came to 0.743%.

For `CC(=O)Nc1cc(-c2cccc(F)c2F)n[nH]1`, the cytotoxicity at 70.5 h was -5.76%.

As to `COC(=O)c1ccc(NC(C)c2ccc3c(c2)CCC(=O)N3)nn1` (stereo not drawn), the cytotoxicity at 70.5 h is -8.66%.

Regarding `FC(F)CNc1cnc(C2CCCN2)cn1` (stereo not drawn), the cytotoxicity at 70.5 h came to 3.12%.

Consider `COc1cccc(Nc2nc(C3CCNCC3)c3sc(C)c(C)n23)c1`, for which the cytotoxicity at 70.5 h was -7.32%.

As to `Cc1sc2c(C3CCCNC3)nc(Nc3cccc(F)c3)n2c1C` (stereo not drawn), the cytotoxicity at 70.5 h was -5.08%.

In the case of `COc1cccc(Nc2nc(C3CCCNC3)c3ccccn23)c1` (stereo not drawn), the cytotoxicity at 70.5 h was -7.29%.

`Cc1sc2c(C3CCNCC3)nc(Nc3cccc(F)c3)n2c1C`: the cytotoxicity at 70.5 h worked out at 15.7%.

`COc1cccc(-c2noc(C3CCN(Cc4ccccc4F)C3)n2)c1` (stereo not drawn): the cytotoxicity at 70.5 h was 38.2%.

`COc1cccc(-c2noc(C3CCN(Cc4ccc(C)cc4)C3)n2)c1` (stereo not drawn): the cytotoxicity at 70.5 h turned out to be 23.2%.

As to `COc1cccc(-c2noc(C3CCN(Cc4ccccc4C)C3)n2)c1` (stereo not drawn), the cytotoxicity at 70.5 h is 13.9%.

Regarding `Clc1ccccc1CN1CCc2nc(C3CCCCN3)ncc2C1` (stereo not drawn), the cytotoxicity at 70.5 h is -18.6%.

As to `O=C(CCC1CCCC1)NCCn1nc(C2CCNC2)c2nccnc21` (stereo not drawn), the cytotoxicity at 70.5 h was 34.9%.

As for `COc1ccc(CN(Cc2cccnc2)CC2CCCO2)c(OC)c1` (stereo not drawn), the cytotoxicity at 70.5 h was -5.79%.

As to `CN(C)c1ccc(CN(CCCn2ccnc2)Cc2c[nH]cn2)cc1`, the cytotoxicity at 70.5 h is -13.5%.

Source of the values: ChEMBL document CHEMBL3507680, “University of Dundee, Gates Library screen for HepG2 cell viability”.
